{"source": "patent US20250009691A1", "about": "“DIALYSIS FLUID COMPRISING KETONE BODIES FOR THE TREATMENT OF CANCER” (GAMBRO LUNDIA AB, priority 2021, published 2025)", "assay_type_in_all_cases": "cell-based, human", "key": {"[1]": {"test_system": "renal carcinoma cell line RCC4", "experiment": "Example 2: BOHB and Acac added alone or in combination to Medium B-C (CellTiter-Glo)", "settings": "nutrient restricted Medium C", "method": "(§1) Stock solutions of DL-β-Hydroxybutyric acid sodium salt (H6501, Sigma Aldrich) and Lithium Acetoacetate (A8509, Sigma Aldrich) were prepared in water, sterile filtered, aliquoted and stored at −20° C. Lithium Chloride (L7026, Sigma Aldrich) was used as a control for the addition of Lithium in the Li-Acac.\n(§2) CellTiter-Glo Luminescent cell viability assay (Promega) was used as a readout of cell numbers according to the manufacturers' instructions. In experiments shown in FIGS. 7-8, double plates were seeded and treated. One set of plates was used for collection of medium for lactate measurement (see below) and the CellTiterGlo-assay. The other set of plates was frozen at −80° C. at the end of the experiment. The frozen plates were intended for the CyQuant cell proliferation assay (Thermo Fisher) that measures the amount of DNA per well. Analysis of the amounts of cells by both CellTiterGlo and CyQuant assays would ensure that effects of the culture conditions on viability or growth rate would not be concealed by simultaneous changes in ATP-levels per cell.\nBeing a chiral molecule, BOHB exists as two enantiomers, D- and L-BOHB. D-BOHB is normally produced and metabolized in humans. The BOHB-salt used in this study contains a mixture of 50:50 of D- and L-BOHB. […]"}, "A172 (glioblastoma)": {"test_system": "A172 (glioblastoma)", "experiment": "Study 2: CellTiter-Glo viability, DMEM without sodium pyruvate", "settings": "BOHB 0/4/12 mM, 3 d", "method": "(§3) Cell lines established from human colon carcinoma (HCT15, NCI-H508 and COLO205), renal cell carcinoma (769-P, 786-O and RCC4) and glioblastoma (LN-18, A-172 and U-118 MG) were selected for the analysis. All cell lines were obtained from American Type Culture Collection (ATCC, LGC standards, UK) except for RCC4 and HCT15 that was purchased from Sigma-Aldrich (Merck, Germany). In addition, primary human renal cell carcinoma (RCC) cells isolated from patient nephrectomies were included in the study. […]\n(§4) Optimal seeding density was determined for each cell line in 96 well plates according to the “Protocol for optimizing cell seeding densities to ensure Log-phase growth”. […] Cover the plate. • Incubate the plate overnight at 37° C., 5% CO2. • Add 50 μL of fresh media to the plate wells to achieve a final volume of 200 µL and incubate for 72 h at 37° C., 5% CO2. • Measure viability using Cell Titer Glo assay according to manufacturer's protocol. • Plot log cell number against luminescence intensity to identify the concentration of cells at which log growth is achieved.\n(§5) CellTiter-Glo Luminescent cell viability assay (Promega) was used as a readout of viability.\n(§6) For each cell line, optimal number of cells as determined above were seeded into 96-well plates on day 0. […]"}, "[2]": {"test_system": "RCC4 (renal cell carcinoma)", "experiment": "Study 2: CellTiter-Glo viability, DMEM without sodium pyruvate", "settings": "BOHB 0/4/12 mM, 3 d", "method": "as §3, §4, §5, §6"}, "glioma cell line U118MG": {"test_system": "glioma cell line U118MG", "experiment": "Example 2: BOHB and Acac added alone or in combination to Medium A-C (CellTiter-Glo)", "settings": "for number of cells compared to 8 mM LiCl control: 8 mM Acac", "method": "as §1, §2\n(§7) Next, it was decided to also include Acac in the study and analyze the viability of cells cultured in the presence of BOHB and Acac alone or in combination in Medium A-C. The experiment was performed at 21% and 5% O2. The experiments were made with glioma cell lines A172 and U118MG.\n(§8) Being a chiral molecule, BOHB exists as two enantiomers, D- and L-BOHB. D-BOHB is normally produced and metabolized in humans. The BOHB-salt used in this study contains a mixture of 50:50 of D- and L-BOHB. In order to ensure a high presence of the active D-form, the total concentration of BOHB added was increased to 16 mM, giving a level of 8 mM D-BOHB. To keep the total concentration of active ketones constant, 8 mM Acac was used, and for the combination of both ketones, the levels were adjusted to 4 mM Acac and 8 mM BOHB (containing 4 mM D-BOHB).\n(§9) The Acac available for in vitro use is in the form of a lithium salt. Since lithium itself can affect the viability of cancer cells [Cohen-Harazi et al., Anticancer Res 2020; 40:3831-3837], 8 mM LiCl was used as a control for the 8 mM Acac data point and 4 mM LiCl was used as a control for the 4 mM Acac/8 mM BOHB data.\n(§10) At the end of the experiment, the culture media from each well was collected and frozen to enable later determination of lactate levels as a measurement of the metabolic state. In addition, double experiments were performed, where one set of plates were frozen for later quantification of cell numbers using the CyQuant proliferation assay, and the amounts of cells in the other set were analyzed by CellTiterGlo viability assay."}, "glioma cell line A172": {"test_system": "glioma cell line A172", "experiment": "Example 2: BOHB and Acac added alone or in combination to Medium A-C (CellTiter-Glo)", "settings": "for growth, repetition experiments 2-6: BOHB or Acac added separately, FIG. 9, inconsistent results; for number of cells compared to 8 mM LiCl control: 8 mM Acac", "method": "as §1, §2, §7, §8, §9, §10"}, "[3]": {"settings": "Medium A, 16 mM BOHB alone, both normoxia and hypoxia, 3 days"}, "[4]": {"settings": "Medium C, 16 mM BOHB, both 21 and 5% O2"}, "[5]": {"settings": "Medium A, both normoxia and hypoxia"}}, "data": [{"smiles": "CC(O)CC(=O)[O-].[Na+]", "note": "(racemic) [BOHB, DL-β-Hydroxybutyric acid sodium salt]", "values": [{"measurement": "increased sensitivity to high levels of BOHB or a combination of BOHB and Acac", "setting": "[1]", "result": "not found"}, {"measurement": "proliferation of cells with increase in the concentration of BOHB", "setting": "A172 (glioblastoma)", "result": "suppresses the proliferation of cells"}, {"measurement": "proliferation of cells with increase in the concentration of BOHB", "setting": "[2]", "result": "suppresses the proliferation of cells"}, {"measurement": "growth inhibitory effect", "setting": "glioma cell line U118MG; [3]", "result": "no growth inhibitory effect"}, {"measurement": "number of cells, % compared to C-medium without BOHB", "setting": "glioma cell line U118MG; [4]", "result": "around 30%"}, {"measurement": "growth inhibitory effect", "setting": "glioma cell line A172; [3]", "result": "no growth inhibitory effect"}, {"measurement": "number of cells, % of the amount in Medium B without BOHB", "setting": "glioma cell line A172; Medium B, hypoxic", "result": "approximately 70%"}, {"measurement": "number of cells, % compared to C-medium without BOHB", "setting": "glioma cell line A172; [4]", "result": "around 30%"}, {"measurement": "growth, repetition experiments 2-6", "setting": "glioma cell line A172; Medium C", "result": "trend of reduced growth"}]}, {"smiles": "CC(=O)CC(=O)[O-].[Li+]", "note": "[Acac, Lithium Acetoacetate]", "values": [{"measurement": "number of cells compared to 8 mM LiCl control", "setting": "glioma cell line U118MG; [5]", "result": "did not reduce the number of cells further"}, {"measurement": "number of cells compared to 8 mM LiCl control", "setting": "glioma cell line U118MG; Medium B, only at 21% O2", "result": "reduced the number of cells significantly"}, {"measurement": "amounts of cells compared to 8 mM LiCl control", "setting": "glioma cell line U118MG; Medium C, 8 mM Acac alone", "result": "did not significantly reduce the amounts of cells"}, {"measurement": "number of cells compared to 8 mM LiCl control", "setting": "glioma cell line A172; [5]", "result": "did not reduce the number of cells further"}, {"measurement": "number of cells compared to 8 mM LiCl control", "setting": "glioma cell line A172; Medium B, only at 21% O2", "result": "reduced the number of cells significantly"}, {"measurement": "amounts of cells compared to 8 mM LiCl control", "setting": "glioma cell line A172; Medium C, 8 mM Acac alone", "result": "did not significantly reduce the amounts of cells"}, {"measurement": "growth, repetition experiments 2-6", "setting": "glioma cell line A172; Medium C", "result": "trend of reduced growth"}]}]}
